Measured values published in PubChem BioAssay (NCI).
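Step 1: Grow cells in 96-well plates. Step 2: Expose to compound for 48 hours at 5 concentrations. Step 3: Interpolate endpoints linearly; if unreached, use highest concentration. TGI denotes the concentration required for complete inhibition of growth.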

Tests used:
Assay in all cases: growth of human tumour cells (NCI), 48 h
[1] = test system: NCI-H522 lung
[2] = test system: HCC-2998 colon
[3] = test system: SF-295 CNS
[4] = test system: HT29 colon
[5] = test system: PC-3 prostate
[6] = test system: CCRF-CEM leukemia
[7] = test system: NCI/ADR-RES ovarian
[8] = test system: HS 578T breast
[9] = test system: RPMI-8226 leukemia
[10] = test system: HCT-116 colon
[11] = test system: SNB-75 CNS
[12] = test system: MDA-N
[13] = test system: TK-10 renal
[14] = test system: SF-539 CNS
[15] = test system: IGROV1 ovarian
[16] = test system: A549 NSCLC
[17] = test system: OVCAR-8 ovarian
[18] = test system: A498 renal
[19] = test system: SW-620 colon
[20] = test system: SK-MEL-5 melanoma
[21] = test system: HOP-92 NSCLC
[22] = test system: SK-OV-3 ovarian
[23] = test system: HOP-62 NSCLC
[24] = test system: MALME-3M melanoma
[25] = test system: HL-60(TB) leukemia
[26] = test system: MCF7 breast
[27] = test system: SF-268 CNS
[28] = test system: OVCAR-3 ovarian
[29] = test system: MDA-MB-435
[30] = test system: SNB-19 CNS
[31] = test system: UO-31 renal
[32] = test system: OVCAR-4 ovarian
[33] = test system: RXF 393 renal
[34] = test system: NCI-H23 lung
[35] = test system: U251 CNS
[36] = test system: M14 melanoma
[37] = test system: MOLT-4 leukemia
[38] = test system: 786-0 renal
[39] = test system: NCI-H460 lung
[40] = test system: OVCAR-5 ovarian
[41] = test system: DU-145 prostate
[42] = test system: K-562 leukemia
[43] = test system: SK-MEL-28 melanoma
[44] = test system: MDA-MB-231 breast
[45] = test system: LOX IMVI melanoma
[46] = test system: CAKI-1 renal
[47] = test system: SR leukemia
[48] = test system: T-47D breast
[49] = test system: HCT-15 colon
[50] = test system: ACHN renal
[51] = test system: UACC-257 melanoma
[52] = test system: EKVX NSCLC
[53] = test system: SK-MEL-2 melanoma
[54] = test system: BT-549 breast
[55] = test system: COLO 205 colon
[56] = test system: UACC-62 melanoma
[57] = test system: KM12 colon
[58] = test system: SN12C renal
[59] = test system: NCI-H226 lung

COC(=O)c1ccc2c(c1)CC1(C2)Cc2cc3c(cc2C1)CCC3
TGI [1]: > 100 µM | TGI [2]: > 100 µM | TGI [3]: > 100 µM | TGI [4]: > 100 µM | TGI [5]: > 100 µM | TGI [6]: > 100 µM | TGI [7]: > 100 µM | TGI [8]: > 100 µM | TGI [9]: > 100 µM | TGI [10]: > 100 µM | TGI [11]: > 100 µM | TGI [12]: > 100 µM | TGI [13]: > 100 µM | TGI [14]: > 100 µM | TGI [15]: > 100 µM | TGI [16]: > 100 µM | TGI [17]: > 100 µM | TGI [18]: > 100 µM | TGI [19]: > 100 µM | TGI [20]: > 100 µM | TGI [21]: > 100 µM | TGI [22]: > 100 µM | TGI [23]: > 100 µM | TGI [24]: > 100 µM | TGI [25]: > 100 µM | TGI [26]: > 100 µM | TGI [27]: > 100 µM | TGI [28]: > 100 µM | TGI [29]: > 100 µM | TGI [30]: > 100 µM | TGI [31]: > 100 µM | TGI [32]: > 100 µM | TGI [33]: > 100 µM | TGI [34]: > 100 µM | TGI [35]: > 100 µM | TGI [36]: > 100 µM | TGI [37]: > 100 µM | TGI [38]: > 100 µM | TGI [39]: > 100 µM | TGI [40]: > 100 µM | TGI [41]: > 100 µM | TGI [42]: > 100 µM | TGI [43]: > 100 µM | TGI [44]: > 100 µM | TGI [45]: > 100 µM | TGI [46]: > 100 µM | TGI [47]: > 100 µM | TGI [48]: > 100 µM | TGI [49]: > 100 µM | TGI [50]: > 100 µM | TGI [51]: > 100 µM | TGI [52]: > 100 µM | TGI [53]: > 100 µM

O=[N+]([O-])c1ccc(SN=S=NSc2cccc(SN=S=NSc3ccc([N+](=O)[O-])cc3)c2)cc1
TGI [1]: 34.3 µM | TGI [54]: 40.6 µM | TGI [2]: > 100 µM | TGI [3]: > 100 µM | TGI [4]: > 100 µM | TGI [5]: 40.1 µM | TGI [6]: 42.5 µM | TGI [7]: > 100 µM | TGI [8]: > 100 µM | TGI [9]: > 100 µM | TGI [10]: > 100 µM | TGI [12]: 98.8 µM | TGI [15]: > 100 µM | TGI [55]: > 100 µM | TGI [16]: > 100 µM | TGI [17]: 53.4 µM | TGI [56]: > 100 µM | TGI [18]: > 100 µM | TGI [19]: 60.3 µM | TGI [20]: > 100 µM | TGI [21]: > 100 µM | TGI [22]: > 100 µM | TGI [23]: > 100 µM | TGI [24]: > 100 µM | TGI [25]: 83.7 µM | TGI [26]: 75 µM | TGI [27]: > 100 µM | TGI [28]: > 100 µM | TGI [29]: 71.2 µM | TGI [30]: > 100 µM | TGI [31]: 70.2 µM | TGI [32]: > 100 µM | TGI [35]: 32 µM | TGI [57]: > 100 µM | TGI [36]: > 100 µM | TGI [37]: > 100 µM | TGI [38]: 27.2 µM | TGI [39]: > 100 µM | TGI [40]: 74.3 µM | TGI [42]: > 100 µM | TGI [43]: > 100 µM | TGI [45]: 35.5 µM | TGI [46]: 41.1 µM | TGI [58]: 29.2 µM | TGI [47]: > 100 µM | TGI [48]: 38.9 µM | TGI [49]: 57.8 µM | TGI [50]: > 100 µM | TGI [51]: > 100 µM | TGI [52]: > 100 µM | TGI [53]: 34.1 µM

O=C1NC2NC3NC(=O)NC3NC2N1 (configuration not stated)
TGI [1]: > 100 µM | TGI [54]: > 100 µM | TGI [3]: > 100 µM | TGI [4]: > 100 µM | TGI [5]: > 100 µM | TGI [6]: > 100 µM | TGI [7]: > 100 µM | TGI [9]: > 100 µM | TGI [10]: > 100 µM | TGI [11]: > 100 µM | TGI [12]: > 100 µM | TGI [14]: > 100 µM | TGI [15]: > 100 µM | TGI [55]: > 100 µM | TGI [16]: > 100 µM | TGI [17]: > 100 µM | TGI [56]: > 100 µM | TGI [18]: > 100 µM | TGI [19]: > 100 µM | TGI [20]: > 100 µM | TGI [21]: > 100 µM | TGI [23]: > 100 µM | TGI [24]: > 100 µM | TGI [25]: > 100 µM | TGI [26]: > 100 µM | TGI [28]: > 100 µM | TGI [29]: > 100 µM | TGI [30]: > 100 µM | TGI [31]: > 100 µM | TGI [33]: > 100 µM | TGI [34]: > 100 µM | TGI [35]: > 100 µM | TGI [57]: > 100 µM | TGI [36]: > 100 µM | TGI [37]: > 100 µM | TGI [38]: > 100 µM | TGI [40]: > 100 µM | TGI [41]: > 100 µM | TGI [42]: > 100 µM | TGI [43]: > 100 µM | TGI [44]: > 100 µM | TGI [45]: > 100 µM | TGI [46]: > 100 µM | TGI [58]: > 100 µM | TGI [47]: > 100 µM | TGI [50]: > 100 µM | TGI [51]: > 100 µM | TGI [52]: > 100 µM | TGI [59]: > 100 µM | TGI [53]: > 100 µM

O=C1CCN2c3ccccc3[C@H]3Cc4cccc(c4[C@@H]2C3)CCO1
TGI [1]: > 100 µM | TGI [54]: > 100 µM | TGI [2]: > 100 µM | TGI [3]: > 100 µM | TGI [4]: > 100 µM | TGI [5]: > 100 µM | TGI [6]: > 100 µM | TGI [7]: > 100 µM | TGI [9]: > 100 µM | TGI [10]: > 100 µM | TGI [11]: 96.7 µM | TGI [12]: 80.3 µM | TGI [13]: > 100 µM | TGI [14]: > 100 µM | TGI [15]: 84.9 µM | TGI [55]: > 100 µM | TGI [16]: > 100 µM | TGI [17]: > 100 µM | TGI [56]: > 100 µM | TGI [18]: > 100 µM | TGI [19]: > 100 µM | TGI [20]: 54.3 µM | TGI [21]: > 100 µM | TGI [22]: > 100 µM | TGI [23]: > 100 µM | TGI [24]: > 100 µM | TGI [25]: 48.8 µM | TGI [26]: > 100 µM | TGI [27]: > 100 µM | TGI [28]: 86 µM | TGI [29]: > 100 µM | TGI [30]: > 100 µM | TGI [31]: 76.4 µM | TGI [32]: > 100 µM | TGI [33]: > 100 µM | TGI [34]: > 100 µM | TGI [35]: > 100 µM | TGI [57]: > 100 µM | TGI [36]: 49.1 µM | TGI [37]: 54.5 µM | TGI [38]: > 100 µM | TGI [39]: > 100 µM | TGI [40]: > 100 µM | TGI [41]: > 100 µM | TGI [42]: 80.7 µM | TGI [43]: > 100 µM | TGI [44]: > 100 µM | TGI [45]: > 100 µM | TGI [46]: > 100 µM | TGI [58]: 37.4 µM | TGI [47]: 74.6 µM | TGI [48]: > 100 µM | TGI [49]: > 100 µM | TGI [50]: > 100 µM | TGI [51]: > 100 µM | TGI [52]: > 100 µM | TGI [59]: > 100 µM | TGI [53]: > 100 µM
